According to patent publication US20260258048A1, “LACTAM-CONTAINING IMIDAZOPYRIDAZINE IL-17 INHIBITOR COMPOUNDS” (Janssen Pharmaceutica NV, priority 2023, published 2026):

Legend:
[1] = tested on: IL-17A-induced G-CSF production in human normal keratinocyte (NHK); assay: NHK assay: IL-17A-induced G-CSF production in normal human keratinocytes; type: cell-based; details: Homo sapiens, Keratinocyte, 24 h, IL-17A 5 ng/mL, class of the average IC50 where tested more than once
Experimental: IL-17A acts directly on keratinocytes through binding to dimeric receptor IL-17RA/RC and drives the production of a number of inflammatory mediators known to be elevated in psoriasis lesional tissue. IL-17A small molecule inhibitors that block the IL-17A to interact with IL-17R would inhibit the IL-17A signaling in its targeted cells such as keratinocytes. The compound functional activity is evaluated for its impact on IL-17A-induced G-CSF production in human normal keratinocyte (NHK).
Adult normal human keratinocytes are cultured in keratinocyte growth medium (Lonza) in a flask till reaching ~90% confluence, then cells are transferred to a 384-well plate at density of 3000-4000 cell/well. Recombinant human IL-17A (Gibco PHC9174) is pre-incubated with titrated compound or DMSO for 1 h at rt then added to the cell culture plate. The final concentration of IL-17A is 5 ng/mL and DMSO is 0.2%, in the culture containing 5% FBS. Cells are cultured/treated for 24 h at 37° C. Supernatants are collected and G-CSF production is measured through HTRF technology using Human G-CSF Kit (CisBio). G-CSF concentration was extrapolated from the standard curve and IC50 is determined using GraphPad Prism. Cell viability is also evaluated using CellTiter-Glo kit (Promega) and effect of compound on cell viability is compared to DMSO control.

[2] = target: IL-17A(FLAG-tagged): IL-17RA(His-tagged) (Homo sapiens, UniProt Q16552, K93Q); assay: IL-17A(FLAG-tagged): IL-17RA(His-tagged) binding disruption Eu-HTRF assay; details: class of the average IC50 where tested more than once
Text: IL-17A(FLAG-tagged): IL-17RA(His-tagged) binding disruption Eu-HTRF assay An antibody directed against the FLAG tag of IL-17A (SEQ ID NO: 1) is labeled with the HTRF donor chromophore (Europium-cryptate). IL-17A is present as a dimer that is “locked into” this quaternary structure due to the formation of loop-spanning intramolecular disulfide bridges. The construct of IL-17RA used in the assay excludes the […] portion of the receptor and is fused to a C-terminal 10×His tag (SEQ ID NO:2). An antibody directed against the His tag of the IL-17RA chimera is labeled with the HTRF acceptor chromophore (“D2”). The fluorescence-resonance energy transfer (FRET) depends on the vicinity of the donor chromophore to the acceptor, and interruption of the binding between the IL-17A and IL-17RA causes the reduction/loss of FRET. Therefore, this assay allows to evaluate the compound effect on the binding IL-17A and IL-17RA by monitoring the fluorescence intensity of donor vs acceptor. The assay is run as described below.
40 nl of 2-fold serial diluted compound solution for total 22 dilution points is added into each well of a 1536-well, white, low-volume, non-binding plate (Greiner #782904), then 2 μl of FLAG tagged IL-17A at 2× final concentration (1 μM) in solution of PBS+0.01% Triton-X100 is added to each well. The assay plate is briefly centrifuged then incubated for 1 h at rt. A mixed solution is prepared containing 2×5 nM 10HIS×IL-17RA, 2×2.5 nM Eu-anti-FLAG (CISBIO), 2×5 nM D2-anti-HIS (CISBIO) in PBS+0.01% Triton-X100+200 mM Potassium Fluoride (Sigma 60238) and 2 μl of mix is added to each well of the assay plate. The plate is briefly centrifuged then incubated for 2 h at rt. The HTRF intensities at the wavelength of donor (615 nm) and acceptor (665 nm) are measured using BMG Pherastar. The ratio between intensities at two wavelengths is calculated and plotted against the compound concentration and the data is fitted to a one-site competition model to yield IC50 of the compound.

UniProt Q16552, sequence (Q16552 with tags, fused parts or gaps K93Q): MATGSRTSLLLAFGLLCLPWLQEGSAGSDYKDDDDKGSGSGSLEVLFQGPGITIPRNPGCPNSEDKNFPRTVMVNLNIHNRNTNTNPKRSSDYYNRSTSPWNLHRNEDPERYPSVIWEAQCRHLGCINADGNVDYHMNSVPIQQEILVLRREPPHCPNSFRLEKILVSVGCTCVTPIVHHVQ

Row | SMILES | IC50 [2] [µM] | IC50 [1] [µM]
1 | O=C(N[C@H](c1cn2ncc(C[C@]34CCC[C@@H](C3)NC4=O)cc2n1)C1CCC(F)(F)CC1)c1nonc1C1CC1 (relative stereo) [Example 12, 4-Cyclopropyl-N—[(S)-(4,4-difluorocyclohexyl)-[7-[[(1S*5S*)-7-oxo-6-azabicyclo[3.2.1]octan-1-yl]methyl]imidazo[1,2-b]pyridazin-2-yl]methyl]-1,2,5-oxadiazole-3-carboxamide] | > 4 | 0.4 to 4
2 | O=C(N[C@H](c1cn2ncc([C@@H]3C[C@]34C[C@@H](C(F)(F)F)NC4=O)cc2n1)C1CCC(F)(F)CC1)c1nonc1C1CC1 (relative stereo) [Example 39, 4-Cyclopropyl-N—((S)-(4,4-difluorocyclohexyl)(7-((S*,3S*,6S)-4-oxo-6-(trifluoromethyl)-5-azaspiro[2.4]heptan-1-yl)imidazo[1,2-b]pyridazin-2-yl)methyl)-1,2,5-oxadiazole-3-carboxamide] | > 4 | > 4
3 | O=C(N[C@H](c1cn2ncc([C@H]3C[C@@]34C[C@@H](C(F)(F)F)NC4=O)cc2n1)C1CCC(F)(F)CC1)c1nonc1C1CC1 (relative stereo) [Example 41, 4-Cyclopropyl-N—((S)-(4,4-difluorocyclohexyl)(7-((1R*,3R*,6S)-4-oxo-6-(trifluoromethyl)-5-azaspiro[2.4]heptan-1-yl)imidazo[1,2-b]pyridazin-2-yl)methyl)-1,2,5-oxadiazole-3-carboxamide] | > 4 | > 4
4 | Cc1nonc1C(=O)N[C@H](c1cn2ncc(C[C@H]3CC[C@H](C(F)(F)F)NC3=O)cc2n1)C1CCC(F)(F)CC1 (relative stereo) [Example 46, N—((S)-(4,4-difluorocyclohexyl)(7-(((3R*,6R*)-2-oxo-6-(trifluoromethyl)piperidin-3-yl)methyl)imidazo[1,2-b]pyridazin-2-yl)methyl)-4-methyl-1,2,5-oxadiazole-3-carboxamide] | > 4 | > 4
5 | Cc1nonc1C(=O)N[C@H](c1cn2ncc(C[C@@H]3CC[C@H](C(F)(F)F)NC3=O)cc2n1)C1CCC(F)(F)CC1 (relative stereo) [Example 48, N—((S)-(4,4-difluorocyclohexyl)7-(((3S*,6R*)-2-oxo-6-(trifluoromethyl)piperidin-3-yl)methyl)imidazo[1,2-b]pyridazin-2-yl)methyl)-4-methyl-1,2,5-oxadiazole-3-carboxamide] | > 4 | > 4
6 | CC[C@H]1C[C@H](Cc2cnn3cc([C@@H](NC(=O)c4nonc4C4CC4)C4CCC(F)(F)CC4)nc3c2)C(=O)N1 (relative stereo) [Example 91, 4-Cyclopropyl-N—[(S)-(4,4-difluorocyclohexyl)-[7-[[(3S*,5S*)-5-ethyl-2-oxo-pyrrolidin-3-yl]methyl]imidazo[1,2-b]pyridazin-2-yl]methyl]-1,2,5-oxadiazole-3-carboxamide] | 0.4 to 4 | –
7 | CC[C@H]1C[C@@H](Cc2cnn3cc([C@@H](NC(=O)c4nonc4C4CC4)C4CCC(F)(F)CC4)nc3c2)C(=O)N1 (relative stereo) [Example 92, 4-Cyclopropyl-N—[(S)-(4,4-difluorocyclohexyl)-[7-[[(3R*,5S*)-5-ethyl-2-oxo-pyrrolidin-3-yl]methyl]imidazo[1,2-b]pyridazin-2-yl]methyl]-1,2,5-oxadiazole-3-carboxamide] | > 4 | –
8 | O=C(N[C@H](c1cn2ncc(CC3CCCNC3=O)cc2n1)C1CCC(F)(F)CC1)c1nonc1C1CC1 (single isomer, unassigned) [Example 23, 4-Cyclopropyl-N—[(S)-(4,4-difluorocyclohexyl)-[7-[[(3R*)-2-oxo-3-piperidyl]methyl]imidazo[1,2-b]pyridazin-2-yl]methyl]-1,2,5-oxadiazole-3-carboxamide] | 0.4 to 4 | –
9 | O=C(N[C@H](c1cn2ncc(CC3CCCNC3=O)cc2n1)C1CCC(F)(F)CC1)c1nonc1C1CC1 (single isomer, unassigned) [Example 24, 4-Cyclopropyl-N—[(S)-(4,4-difluorocyclohexyl)-[7-[[(3S*)-2-oxo-3-piperidyl]methyl]imidazo[1,2-b]pyridazin-2-yl]methyl]-1,2,5-oxadiazole-3-carboxamide] | 0.4 to 4 | –

Now from value to molecule, other results behind:

Row | IC50 [2] [µM] | SMILES | IC50 [1] [µM]
10 | < 0.4 | CC1(C(=O)c2cnn3cc([C@@H](NC(=O)c4nonc4C4CC4)C4CCC(F)(F)CC4)nc3c2)C[C@@H](C(F)(F)F)NC1=O (mixture of isomers) [Example 102, 4-Cyclopropyl-N—[(S)-(4,4-difluorocyclohexyl)-[7-[(3RS,5S)-3-methyl-2-oxo-5-(trifluoromethyl)pyrrolidine-3-carbonyl]imidazo[1,2-b]pyridazin-2-yl]methyl]-1,2,5-oxadiazole-3-carboxamide] | < 0.4
11 | 0.4 to 4 | CC[C@@H](c1cnn2cc([C@@H](NC(=O)c3nonc3C3CC3)C3CCC(F)(F)CC3)nc2c1)[C@@H]1C[C@@H](C(F)(F)F)NC1=O (relative stereo) [Example 20, 4-Cyclopropyl-N—((S)-(4,4-difluorocyclohexyl)(7-((R*)-1-((3S*,5S)-2-oxo-5-(trifluoromethyl)pyrrolidin-3-yl)propyl)imidazo[1,2-b]pyridazin-2-yl)methyl)-1,2,5-oxadiazole-3-carboxamide] | 0.4 to 4
12 | < 0.4 | O=C(N[C@H](c1cn2ncc([C@@H]3C[C@@]34C[C@@H](C(F)(F)F)NC4=O)cc2n1)C1CCC(F)(F)CC1)c1nonc1C1CC1 (relative stereo) [Example 38, 4-Cyclopropyl-N—((S)-(4,4-difluorocyclohexyl)(7-((1S*,3R*,6S)-4-oxo-6-(trifluoromethyl)-5-azaspiro[2.4]heptan-1-yl)imidazo[1,2-b]pyridazin-2-yl)methyl)-1,2,5-oxadiazole-3-carboxamide] | 0.4 to 4
13 | 0.4 to 4 | O=C(N[C@H](c1cn2ncc(C[C@H]3C(=O)NCC[C@H]3C(F)(F)F)cc2n1)C1CCC(F)(F)CC1)c1nonc1C1CC1 (relative stereo) [Example 44, 4-Cyclopropyl-N—((S)-(4,4-difluorocyclohexyl)(7-(((3R*,4R*)-2-oxo-4-(trifluoromethyl)piperidin-3-yl)methyl)imidazo[1,2-b]pyridazin-2-yl)methyl)-1,2,5-oxadiazole-3-carboxamide] | > 4
14 | 0.4 to 4 | O=C(N[C@H](c1cn2ncc(C[C@@H]3C(=O)NCC[C@@H]3C(F)(F)F)cc2n1)C1CCC(F)(F)CC1)c1nonc1C1CC1 (relative stereo) [Example 45, 4-Cyclopropyl-N—((S)-(4,4-difluorocyclohexyl)(7-(((3S*,4S*)-2-oxo-4-(trifluoromethyl)piperidin-3-yl)methyl)imidazo[1,2-b]pyridazin-2-yl)methyl)-1,2,5-oxadiazole-3-carboxamide] | > 4
15 | < 0.4 | Cc1nonc1C(=O)N[C@H](c1cn2ncc(C[C@H]3CC[C@@H](C(F)(F)F)NC3=O)cc2n1)C1CCC(F)(F)CC1 (relative stereo) [Example 47, N—((S)-(4,4-difluorocyclohexyl)7-(((3R*,6S*)-2-oxo-6-(trifluoromethyl)piperidin-3-yl)methyl)imidazo[1,2-b]pyridazin-2-yl)methyl)-4-methyl-1,2,5-oxadiazole-3-carboxamide] | 0.4 to 4
16 | 0.4 to 4 | O=C(N[C@H](c1cn2ncc(C[C@@H]3C(=O)NC[C@@H]3C(F)(F)F)cc2n1)C1CCC(F)(F)CC1)c1nonc1C1CC1 (relative stereo) [Example 49, 4-Cyclopropyl-N—((S)-(4,4-difluorocyclohexyl)(7-(((3S*,4R*)-2-oxo-4-(trifluoromethyl)pyrrolidin-3-yl)methyl)imidazo[1,2-b]pyridazin-2-yl)methyl)-1,2,5-oxadiazole-3-carboxamide] | > 4
